Read-outs that look alike come from different tables or passages of the source. Where a SMILES comes first, the peptide text is derived from it. Bridges are numbered along the chain shown (N, C = ends). [ ]: non-standard residue; d: D form. Tle = CC(C)(C)[C@H](N)C(=O)O; dDab = NCC[C@@H](N)C(=O)O; Orn = NCCC[C@H](N)C(=O)O; Dab = NCC[C@H](N)C(=O)O; Dap = NC[C@H](N)C(=O)O
Columns and labels:
Assay type in all cases: cell-based
[1] = test system: Acinetobacter baumannii DSM 30008
Experimental: (§1) Stock solutions were kept at +4° C., light protected.
(§2) The selective antimicrobial activities of the peptides were determined in 96-well plates (Greiner, polystyrene) by the standard NCCLS broth microdilution method (National Committee for Clinical Laboratory Standards 1993. Methods for dilution antimicrobial susceptibility tests for bacteria that grow aerobically, 3rd ed. Approved standard M7-A6; National Committee for Clinical laboratory standards, Wayne, Pa.) with slight modifications. Inocula of the microorganisms were diluted into Mueller-Hinton II (MH, cation adjusted) broth and compared with a 0.5 McFarland standard to give appr. 10^6 colony forming units (CFU)/mL. Aliquots (90 μl) of inoculate were added to 10 μl of MH broth+P-80 (Polysorbate 80, 0.002% final concentration) containing the peptide in serial two-fold dilutions. The following microorganisms were used to determine antibiotic selectivity of the peptides: Escherichia coli ATCC 25922, Klebsiella pneumoniae ATCC 13883 and Acinetobacter baumannii DSM 30008.

[2] = test system: Escherichia coli ATCC 25922
Experimental: as §1, §2

[3] = test system: Klebsiella pneumoniae ATCC 13883
Experimental: as §1, §2

[4] = test system: human red blood cells (hRBC); assay: Hemolysis of human red blood cells
Experimental: as §1
Percent hemolysis was calculated as follows: (OD540peptide/OD540H2O)×100%.

[5] = Mueller-Hinton broth II, 0.002% P-80, 18-20 hours at 35° C.

SMILES	Acinetobacter baumannii DSM 30008 MIC ([1]; DSM 30008) [µg/mL]	Escherichia coli ATCC 25922 MIC ([2]; ATCC 25922) [µg/mL]	Klebsiella pneumoniae ATCC 13883 MIC ([3]; ATCC 13883) [µg/mL]	Hemolysis at 100 μg/mL ([4]; red cells of human, 1 h, 100) [%]	Acinetobacter baumannii DSM 30008 MIC [1, 5] [µg/mL]	Escherichia coli ATCC 25922 MIC [2, 5] [µg/mL]	Klebsiella pneumoniae ATCC 13883 MIC [3, 5] [µg/mL]	Hemolysis at 100 μg/mL ([4]; 100 μg/mL, 20% hRBC (v/v), 1 h at 37° C.) [%]
CC[C@H](C)[C@@H]1NC(=O)[C@@H]2CCCN2C(=O)[C@H]2CCCN2C(=O)[C@H](CO)NC(=O)[C@@H]2CSSC[C@H](NC1=O)C(=O)N[C@@H](Cc1ccc(O)cc1)C(=O)N[C@@H](CCN)C(=O)N[C@@H](CCCN)C(=O)N[C@H](CCN)C(=O)N[C@@H](CCN)C(=O)N[C@@H](Cc1c[nH]c3ccccc13)C(=O)N[C@@H](CCN)C(=O)N[C@@H](C(C)(C)C)C(=O)N2 [Example 10, cyclo(-Ile-Cys-Tyr-Dab-Orn-^DDab-Dab-Trp-Dab-tBuGly-Cys-Ser-^DPro-Pro-)] (HELM PEPTIDE1{I.C.Y.[Dab].[Orn].[NCC[C@@H](N[*:1])C(=O)[*:2]].[Dab].W.[Dab].[CC(C)(C)[C@H](N[*:1])C(=O)[*:2]].C.S.[dP].P}$PEPTIDE1,PEPTIDE1,2:R3-11:R3|PEPTIDE1,PEPTIDE1,1:R1-14:R2$$$V2.0)	1	1	0.25	1				
CC(C)[C@@H]1NC(=O)[C@@H]2CCCN2C(=O)[C@H]2CCCN2C(=O)[C@H]([C@@H](C)O)NC(=O)[C@@H]2CSSC[C@H](NC1=O)C(=O)N[C@@H](Cc1ccc(O)cc1)C(=O)N[C@@H](CCN)C(=O)N[C@@H](CN)C(=O)N[C@@H](CCN)C(=O)N[C@@H](CCN)C(=O)N[C@@H](Cc1c[nH]c3ccccc13)C(=O)N[C@@H](CCN)C(=O)N[C@@H](C(C)(C)C)C(=O)N2 [Example 8, cyclo(-Val-Cys-Tyr-Dab-Dap-Dab-Dab-Trp-Dab-tBuGly-Cys-Thr-^DPro-Pro-)] (HELM PEPTIDE1{V.C.Y.[Dab].[NC[C@H](N[*:1])C(=O)[*:2]].[Dab].[Dab].W.[Dab].[CC(C)(C)[C@H](N[*:1])C(=O)[*:2]].C.T.[dP].P}$PEPTIDE1,PEPTIDE1,2:R3-11:R3|PEPTIDE1,PEPTIDE1,1:R1-14:R2$$$V2.0)					2	1	0.5	1
CC(C)C[C@@H]1NC(=O)[C@@H]2CCCN2C(=O)[C@H]2CCCN2C(=O)[C@H](CO)NC(=O)[C@@H]2CCC(=O)NC[C@H](NC1=O)C(=O)N[C@@H](Cc1ccc(O)cc1)C(=O)N[C@@H](CCN)C(=O)N[C@@H](CCCN)C(=O)N[C@@H](CCN)C(=O)N[C@@H](CCN)C(=O)N[C@@H](Cc1c[nH]c3ccccc13)C(=O)N[C@@H](CCN)C(=O)N[C@@H](C(C)(C)C)C(=O)N2 [Example 26, cyclo(-Leu-Dap-Tyr-Dab-Orn-Dab-Dab-Trp-Dab-tBuGly-Glu-Ser-^DPro-Pro-)] (HELM PEPTIDE1{L.[O=C([C@H](CN[*:3])N[*:1])[*:2]].Y.[Dab].[Orn].[Dab].[Dab].W.[Dab].[CC(C)(C)[C@H](N[*:1])C(=O)[*:2]].E.S.[dP].P}$PEPTIDE1,PEPTIDE1,2:R3-11:R3|PEPTIDE1,PEPTIDE1,1:R1-14:R2$$$V2.0)	4	4	1	0				
CC(C)C[C@@H]1NC(=O)[C@H](CCCCN)NC(=O)[C@H]2CCCN2C(=O)[C@H](C(C)C)NC(=O)[C@@H]2CSSC[C@H](NC1=O)C(=O)N[C@@H](Cc1ccc(O)cc1)C(=O)N[C@@H](C)C(=O)N[C@@H](CCCN)C(=O)N[C@H](CCN)C(=O)N[C@@H](CCN)C(=O)N[C@@H](Cc1c[nH]c3ccccc13)C(=O)N[C@@H](C)C(=O)N[C@@H](C(C)C)C(=O)N2 [Example 3, cyclo(-Leu-Cys-Tyr-Ala-Orn-^DDab-Dab-Trp-Ala-Val-Cys-Val-^DPro-Lys-)] (HELM PEPTIDE1{A.[Orn].[NCC[C@@H](N[*:1])C(=O)[*:2]].[Dab].W.A.V.C.V.[dP].K.L.C.Y}$PEPTIDE1,PEPTIDE1,8:R3-13:R3|PEPTIDE1,PEPTIDE1,1:R1-14:R2$$$V2.0)	1	2	4	3.5				
CC(C)[C@@H]1NC(=O)[C@@H]2CCCN2C(=O)[C@H]2CCCN2C(=O)[C@H](CO)NC(=O)[C@@H]2CC(=O)NCC[C@H](NC1=O)C(=O)N[C@@H](Cc1ccc(O)cc1)C(=O)N[C@@H](CCN)C(=O)N[C@@H](CCN)C(=O)N[C@H](CCN)C(=O)N[C@@H](CCN)C(=O)N[C@@H](Cc1c[nH]c3ccccc13)C(=O)N[C@@H](CCN)C(=O)N[C@@H](C(C)(C)C)C(=O)N2 [Example 28] (HELM PEPTIDE1{V.[Dab].Y.[Dab].[Dab].[NCC[C@@H](N[*:1])C(=O)[*:2]].[Dab].W.[Dab].[CC(C)(C)[C@H](N[*:1])C(=O)[*:2]].D.S.[dP].P}$PEPTIDE1,PEPTIDE1,2:R3-11:R3|PEPTIDE1,PEPTIDE1,1:R1-14:R2$$$V2.0)	2	0.5	0.5	1				

The next lines start with results.

Acinetobacter baumannii DSM 30008 MIC ([1]; DSM 30008) [µg/mL]	Escherichia coli ATCC 25922 MIC ([2]; ATCC 25922) [µg/mL]	Klebsiella pneumoniae ATCC 13883 MIC ([3]; ATCC 13883) [µg/mL]	SMILES	Hemolysis at 100 μg/mL ([4]; red cells of human, 1 h, 100) [%]	Acinetobacter baumannii DSM 30008 MIC [1, 5] [µg/mL]	Escherichia coli ATCC 25922 MIC [2, 5] [µg/mL]	Klebsiella pneumoniae ATCC 13883 MIC [3, 5] [µg/mL]	Hemolysis at 100 μg/mL ([4]; 100 μg/mL, 20% hRBC (v/v), 1 h at 37° C.) [%]
1	1	0.5	CC(C)C[C@@H]1NC(=O)[C@@H]2CCCN2C(=O)[C@H]2CCCN2C(=O)[C@H](CO)NC(=O)[C@@H]2CCC(=O)NC[C@H](NC1=O)C(=O)N[C@@H](Cc1ccc(O)cc1)C(=O)N[C@@H](CCN)C(=O)N[C@@H](CCCN)C(=O)N[C@H](CCN)C(=O)N[C@@H](CCN)C(=O)N[C@@H](Cc1c[nH]c3ccccc13)C(=O)N[C@@H](CCN)C(=O)N[C@@H](C(C)(C)C)C(=O)N2 [Example 29, cyclo(-Leu-Dap-Tyr-Dab-Orn-^DDab-Dab-Trp-Dab-tBuGly-Glu-Ser-^DPro-Pro-)] (cyclo(L[Dap]Y[Dab][Orn][dDab][Dab]W[Dab][Tle]ES[dP]P); lactam 2-11)	0.5				
0.5	0.5	0.5	CC(C)C[C@@H]1NC(=O)[C@@H]2CCCN2C(=O)[C@H]2CCCN2C(=O)[C@H](CO)NC(=O)[C@@H]2CC(=O)NCC[C@H](NC1=O)C(=O)N[C@@H](Cc1ccc(O)cc1)C(=O)N[C@@H](CCN)C(=O)N[C@@H](CCCN)C(=O)N[C@H](CCN)C(=O)N[C@@H](CCN)C(=O)N[C@@H](Cc1c[nH]c3ccccc13)C(=O)N[C@@H](CCN)C(=O)N[C@@H](C(C)(C)C)C(=O)N2 [Example 37, cyclo(-Leu-Dab-Tyr-Dab-Orn-^DDab-Dab-Trp-Dab-tBuGly-Asp-Ser-^DPro-Pro-)] (HELM PEPTIDE1{L.[Dab].Y.[Dab].[Orn].[NCC[C@@H](N[*:1])C(=O)[*:2]].[Dab].W.[Dab].[CC(C)(C)[C@H](N[*:1])C(=O)[*:2]].D.S.[dP].P}$PEPTIDE1,PEPTIDE1,2:R3-11:R3|PEPTIDE1,PEPTIDE1,1:R1-14:R2$$$V2.0)	2.5				
1	0.5	2	CC(C)C[C@@H]1NC(=O)[C@@H]2CCCN2C(=O)[C@H]2CCCN2C(=O)[C@H](CO)NC(=O)[C@@H]2CC(=O)NCCCC[C@H](NC1=O)C(=O)N[C@@H](Cc1ccc(O)cc1)C(=O)N[C@@H](CCN)C(=O)N[C@@H](CCCN)C(=O)N[C@H](CCN)C(=O)N[C@@H](CCN)C(=O)N[C@@H](Cc1c[nH]c3ccccc13)C(=O)N[C@@H](CCN)C(=O)N[C@@H](C(C)(C)C)C(=O)N2 [Example 35, cyclo(-Leu-Lys-Tyr-Dab-Orn-^DDab-Dab-Trp-Dab-tBuGly-Asp-Ser-^DPro-Pro-)] (HELM PEPTIDE1{L.K.Y.[Dab].[Orn].[NCC[C@@H](N[*:1])C(=O)[*:2]].[Dab].W.[Dab].[CC(C)(C)[C@H](N[*:1])C(=O)[*:2]].D.S.[dP].P}$PEPTIDE1,PEPTIDE1,2:R3-11:R3|PEPTIDE1,PEPTIDE1,1:R1-14:R2$$$V2.0)	0				
1.5	0.5	0.125	CC(C)C[C@@H]1NC(=O)[C@@H]2CCCN2C(=O)[C@H]2CCCN2C(=O)[C@H](CO)NC(=O)[C@@H]2CC(=O)NC[C@H](NC1=O)C(=O)N[C@@H](Cc1ccc(O)cc1)C(=O)N[C@@H](CCN)C(=O)N[C@@H](CCCN)C(=O)N[C@H](CCN)C(=O)N[C@@H](CCN)C(=O)N[C@@H](Cc1c[nH]c3ccccc13)C(=O)N[C@@H](CCN)C(=O)N[C@@H](C(C)(C)C)C(=O)N2 [Example 36, cyclo(-Leu-Dap-Tyr-Dab-Orn-^DDab-Dab-Trp-Dab-tBuGly-Asp-Ser-^DPro-Pro-)] (cyclo(L[Dap]Y[Dab][Orn][dDab][Dab]W[Dab][Tle]DS[dP]P); lactam 2-11)	4.5				
1	1	4	CC(C)C[C@@H]1NC(=O)[C@@H]2CCCN2C(=O)[C@H]2CCCN2C(=O)[C@H](CO)NC(=O)[C@@H]2CC(=O)NCCCC[C@H](NC1=O)C(=O)N[C@@H](Cc1ccc(O)cc1)C(=O)N[C@@H](CCN)C(=O)N[C@@H](CCCN)C(=O)N[C@@H](CCN)C(=O)N[C@@H](CCN)C(=O)N[C@@H](Cc1c[nH]c3ccccc13)C(=O)N[C@@H](CCN)C(=O)N[C@@H](C(C)(C)C)C(=O)N2 [Example 33, cyclo(-Leu-Lys-Tyr-Dab-Orn-Dab-Dab-Trp-Dab-tBuGly-Asp-Ser-^DPro-Pro-)] (HELM PEPTIDE1{L.K.Y.[Dab].[Orn].[Dab].[Dab].W.[Dab].[CC(C)(C)[C@H](N[*:1])C(=O)[*:2]].D.S.[dP].P}$PEPTIDE1,PEPTIDE1,2:R3-11:R3|PEPTIDE1,PEPTIDE1,1:R1-14:R2$$$V2.0)	1				
